# In patent US20220153746A1, “NITROGEN OXIDE-DONATING PDE-5 AND/OR PDE-6 INHIBITOR COMPOUNDS, AND USES THEREOF” (ILDONG PHARMACEUTICAL CO., LTD., priority 2020, published 2022):
# Values joined by “and” are separate entries in the source; they are usually repeats but may differ in a detail not shown here. Equal entries are not always repeated.
# Assay: TD Phase (Groups 1 and 3): plasma and ocular tissue concentrations and pharmacokinetics of Compound 18 and its metabolite Compound 4 after once daily ocular instillation of Compound 18 nanosuspension for 7 days
# Type: in vivo, New Zealand white rabbits
# Conditions: for Compound 18 Lens Homogenate Conc.: homogenate dilution factor 5; for Compound 18 Iris/Ciliary Body Homogenate Conc. / Compound 18 Optic Nerve Homogenate Conc. / Compound 18 Retina Homogenate Conc. / Compound 18 Trahecular Meshwork Homogenate Conc.: homogenate dilution factor 20; for Cornea homogenate concentration: homogenate dilution factor 15
# Description: This example illustrates the procedures and results for the levels of Compound 18 and its metabolite Compound 4 in plasma and ocular tissues of normotensive rabbits following ocular instillation of Compound 18 once daily for 7 consecutive days.
# Twenty five (25) male New Zealand white rabbits were divided into 5 groups of varying amounts of animals per group.
# The Test article, Compound 18 was formulated as a 2% nanosuspension in DI water containing 0.2% PS80 (polyoxyethylenesorbitan, monooleate (Tween 80)) and 0.4% HPMC (hydroxypropylmethylcellulose) at pH 6.77. Referred to herein as “Compound 18 nanosuspension.”
# The study consisted of three groups (Groups 1-3) of 19 male rabbits (NZW) that underwent once daily morning ocular installation (1 eyedrop) for 7 consecutive days (Day 0-6). Groups 4-5 each consisted of 3 male rabbits (NZW) that were not dosed.
# Blood samples (1 mL) were collected from the jugular vein at the intervals set out below for each group. The samples were then inverted several times following collection and held on wet ice until centrifuged. Samples were centrifuged within 60 minutes of collection under refrigeration (set at 5° C. for 10 minutes at 2000 g.
# Group 1 (Pilot Study, terminal blood collection): blood was collected from 3 animals at 1 hour post day 7 dose of Compound 18 nanosuspension.
# Group 3 (TD Phase, terminal blood collection): blood was collected from 3 animals at 0.5 hour, 3 animals at 2 hours, 3 animals at 4 hours, and 3 animals at 8 hours post day 7 dose of Compound 18 nanosuspension.
# Group 1 (Pilot Study): 3 animals were terminated at 1 hour post Day 7 dose of Compound 18 nanosuspension. Following blood collection and termination, ocular tissues (aqueous humor, vitreous humor, cornea, iris/ciliary body, lens, optic nerve, retina, sclera/choroid, and trabecular meshwork) were collected from each animal and the tissue weights were recorded. Note: sclera and choroid were collected together. Iris and ciliary body were collected together.
# Group 3 (TD Phase): 3 animals were terminated at 0.5 hour, 3 animals at 2 hours, 3 animals at 4 hours, and 3 animals at 8 hours post Day 7 dose of Compound 18 nanosuspension. Following blood collection and termination, ocular tissues (aqueous humor, vitreous humor, cornea, iris/ciliary body, lens, optic nerve, retina, sclera/choroid, and trabecular meshwork) were collected from each animal and the tissue weights were recorded. Note: sclera and choroid were collected together. Iris and ciliary body were collected together.
# Plasma and tissue samples from treated animals (Groups 1-3) were analyzed for Compound 18 and its metabolite Compound 4 concentrations by LC-MS/MS.
# Pharmacokinetic analysis was conducted using WinNonlin Version 6.2.1 (Pharsight, Mountain View, Calif.), operating as a validated software system. Noncompartmental analysis was conducted using the extravascular administration model for ocular instillation dosing.
# The peak plasma and ocular tissue concentration, time to achieve peak plasma and ocular tissue concentration, half-life, and area under the plasma and ocular tissue concentration-time curve (Cmax, Tmax, T1/2, and AUC) were calculated from the TD phase combined with the pilot study mean animal plasma and ocular tissue concentrations for each sampling time/dose group for Compound 18 and its metabolite Compound 4.
# BA Assay: Quantitation Range 0.05 to 100 ng/mL for Compound 18, 0.15 to 100 ng/mL for Compound 4.
# 3. Pipet 50 μL of each type of pre-spiked ocular tissue samples (AH/VH) for QC samples, 50 μL of incurred aqueous humor, and vitreous humor sample (if applicable) into a 96 well plate.
# Ocular Tissues Homogenate Preparation: Incurred rabbit ocular tissues were weighed in Genogrinder tubes (plastic tubes with small beads) at the time of removal from the animal and stored frozen (<−70° C.) until analysis. The rabbit incurred ocular tissues were thawed on wet ice. […]
# [1] = TD Phase, Group 1, 1 h, individual animals
# [2] = TD Phase, Group 1, 1 h, individual animals, BQL set to 0
# [3] = TD Phase, Group 3, 0.5 h, individual animals
# [4] = TD Phase, Group 3, 0.5 h, individual animals, BQL set to 0
# [5] = TD Phase, Group 3, 2 h, individual animals
# [6] = TD Phase, Group 3, 2 h, individual animals, BQL set to 0
smiles,measurement,setting,value
"CCCc1nn(C)c2c(=O)[nH]c(-c3cc(S(=O)(=O)N4CC(CCCO[N+](=O)[O-])C4)ccc3OCC)nc12 [Compound 18, 3-(1-((4-ethoxy-3-(1-methyl-7-oxo-3-propyl-6,7-dihydro-1H-pyrazolo[4,3-d]pyrimidin-5-yl)phenyl)sulfonyl)azetidin-3-yl)propyl nitrate]",AUC0-8,"Iris/Ciliary Body, Day 7, Compound 18 0.8 mg/kg ocular instillation once daily, Groups 1 and 3",150 ng·h/g
same,Compound 18 Vitreous Humor Conc.,"TD Phase, Group 1, 1 h, Mean, BQL set to 0",BQL (BQL = Below lower limit of quantitation (0.0500 ng/mL for Compound 18)
same,Compound 18 Aqueous Humor Conc.,[1],BQL (BQL = Below lower limit of quantitation (0.0500 ng/mL for Compound 18)
same,Compound 18 Plasma Conc.,[1],BQL^a (BQL = Below lower limit of quantitation (0.0500 ng/mL for Compound 18) and 0.0581 ng/mL
same,Compound 18 Vitreous Humor Conc.,[1],BQL (BQL = Below lower limit of quantitation (0.0500 ng/mL for Compound 18)
same,Final Compound 18 Optic Nerve Conc.,[1],192 ng/g and 266 ng/g
same,Final Compound 18 Iris/Ciliary Body Conc.,[2],0 ng/g and 18.7 ng/g and 302 ng/g
same,Final Compound 18 Lens Conc.,[2],0 ng/g
same,Final Compound 18 Retina Conc.,[2],6.24 ng/g and 20.2 ng/g and 27.8 ng/g
same,Compound 18 Lens Homogenate Conc.,[1],BQL (BQL = Below lower limit of quantitation (0.0500 ng/mL for Compound 18)
same,Compound 18 Iris/Ciliary Body Homogenate Conc.,[1],BQL (BQL = Below lower limit of quantitation (0.0500 ng/mL for Compound 18) and 0.934 ng/mL and 15.1 ng/mL
same,Compound 18 Optic Nerve Homogenate Conc.,[1],9.59 ng/mL and 13.3 ng/mL
same,Compound 18 Retina Homogenate Conc.,[1],0.312 ng/mL and 1.01 ng/mL and 1.39 ng/mL
same,Compound 18 Trahecular Meshwork Homogenate Conc.,[1],BQL (BQL = Below lower limit of quantitation (0.0500 ng/mL for Compound 18)
same,Compound 18 Aqueous Humor Conc.,"TD Phase, Group 3, 0.5 h, Mean, BQL set to 0",BQL (BQL = Below lower limit of quantitation (0.0500 ng/mL for Compound 18)
same,Compound 18 Aqueous Humor Conc.,[3],BQL^a (BQL = Below lower limit of quantitation (0.0500 ng/mL for Compound 18)
same,Compound 18 Plasma Conc.,[3],0.627 ng/mL and 0.0972 ng/mL and 0.0599 ng/mL
same,Compound 18 Vitreous Humor Conc.,[3],BQL^a (BQL = Below lower limit of quantitation (0.0500 ng/mL for Compound 18)
same,Final Compound 18 Optic Nerve Conc.,[3],116 ng/g and 30.4 ng/g and 183 ng/g
same,Final Compound 18 Sclera/Choroid Conc.,[3],88.8 ng/g and 47.2 ng/g and 186 ng/g
same,Final Compound 18 Iris/Ciliary Body Conc.,[4],2.24 ng/g and 0 ng/g and 268 ng/g
same,Final Compound 18 Lens Conc.,[4],0 ng/g (2×) and 6.35 ng/g
same,Final Compound 18 Retina Conc.,[4],20.2 ng/g and 29.8 ng/g
same,Compound 18 Lens Homogenate Conc.,[3],BQL^1 (BQL = Below lower limit of quantitation (0.0500 ng/mL for Compound 18)
same,Compound 18 Sclera/Choroid Homogenate Conc.,"TD Phase, Group 3, 0.5 h, individual animals, homogenate dilution factor 8",11.1 ng/mL and 5.90 ng/mL and 23.3 ng/mL
same,Cornea homogenate concentration,[3],BQL^a (BQL = Below lower limit of quantitation (0.0500 ng/mL for Compound 18)
same,Compound 18 Iris/Ciliary Body Homogenate Conc.,[3],0.112 ng/mL and BQL^a (BQL = Below lower limit of quantitation (0.0500 ng/mL for Compound 18) and 13.4 ng/mL
same,Compound 18 Optic Nerve Homogenate Conc.,[3],5.79 ng/mL and 1.52 ng/mL and 9.17 ng/mL
same,Compound 18 Retina Homogenate Conc.,[3],1.01 ng/mL and 1.49 ng/mL
same,Compound 18 Trahecular Meshwork Homogenate Conc.,[3],BQL^a (BQL = Below lower limit of quantitation (0.0500 ng/mL for Compound 18)
same,Compound 18 Aqueous Humor Conc.,"TD Phase, Group 3, 2 h, Mean, BQL set to 0",BQL (BQL = Below lower limit of quantitation (0.0500 ng/mL for Compound 18)
same,Compound 18 Aqueous Humor Conc.,[5],BQL (BQL = Below lower limit of quantitation (0.0500 ng/mL for Compound 18)
same,Compound 18 Plasma Conc.,[5],BQL (BQL = Below lower limit of quantitation (0.0500 ng/mL for Compound 18)
same,Compound 18 Vitreous Humor Conc.,[5],BQL (BQL = Below lower limit of quantitation (0.0500 ng/mL for Compound 18)
same,Final Compound 18 Optic Nerve Conc.,[5],24.4 ng/g and 1030 ng/g and 79.0 ng/g
same,Final Compound 18 Iris/Ciliary Body Conc.,[6],1.27 ng/g and 15.4 ng/g and 0 ng/g
same,Final Compound 18 Lens Conc.,[6],0 ng/g
same,Final Compound 18 Retina Conc.,[6],31.5 ng/g and 69.4 ng/g and 3.40 ng/g
same,Compound 18 Lens Homogenate Conc.,[5],BQL (BQL = Below lower limit of quantitation (0.0500 ng/mL for Compound 18)
same,Cornea homogenate concentration,[5],BQL (BQL = Below lower limit of quantitation (0.0500 ng/mL for Compound 18)
same,Compound 18 Iris/Ciliary Body Homogenate Conc.,[5],0.0637 ng/mL and 0.772 ng/mL and BQL (BQL = Below lower limit of quantitation (0.0500 ng/mL for Compound 18)
same,Compound 18 Optic Nerve Homogenate Conc.,[5],1.22 ng/mL and 51.5 ng/mL and 3.95 ng/mL
